Reference: patent US8158621B2, “Methods of treating or preventing autoimmune diseases with 2,4-pyrimidinediamine compounds” (Rigel Pharmaceuticals, Inc., priority 2002, dated 2012)

System: Human Jurkat T-cells (clone N)
Test: Jurkat T-cell activation (anti-TCR, CD69 upregulation)
Type: cell-based
Conditions: not given
Description: The screening process took place over three days.
On the first day of the screen, cultured cells were spun down on a centrifuge (1000 rpm, 5 minutes) and resuspended at 3.0×10^5 cells/ml in RPMI+5% FBS. On the second day of the screen, cells were spun down at 1000 rpm for 5 minutes and resuspended in RPMI+5% FBS at 1.3×10^5 cells/ml. 85 μl of this cell suspension were added to the wells of U-bottom 96 well plates (Corning) 85 μl of compound or diluted RPMI+5% FBS (as a control) only was added to each well and incubated at 37° C. for 1 hour. The cells were then stimulated with anti-TCR (C305) at: 500 ng/ml by adding a 8× solution in 25 μl to the plated cells. The cells were then incubated at 37° C. for 20 hrs.
On the third day of the screen, the plates were spun at 2500 RPM for 1 minute on a Beckman GS-6R centrifuge, and the medium was then removed. 50 μl staining solution (1:100 dilution of anti-CD69-APC antibody (Becton Dickenson) in PBS+2% FBS) was then added to each well, followed by incubation of the plates 4 degrees for 20 minutes in the dark. 150 μl of wash buffer (PBS+2% FBS) was then added to each well, and the plates were spun at 3000 RPM for 1 minute. The supernatant was again removed, and the pellet was resuspended by vortexing gently. 75 μl of PBS+2% FBS +Cytofix (1:4 dilution) was then added, the plates gently vortexed and wrap in aluminum foil. Cells from the plates were read using a flow cytometer coupled to an automated liquid handling system.
Varied concentrations of compound were compared to solvent only to determine the inhibition of T-cell activation IC50 of each compound.

Going from `CN(C)C(=O)COc1cccc(Nc2ncc(F)c(Nc3ccc4c(c3)OCCO4)n2)c1` [Compound R925755] to `CC(C)NC(=O)COc1cccc(Nc2ncc(F)c(Nc3ccc4c(c3)OCCO4)n2)c1` [Compound R926830], the IC50 rises from 1.91 µM to 4.16 µM (2.2-fold). The first is the more potent here.

First: COC(=O)c1ccc(Cn2ncc3ccc(Nc4ncc(F)c(Nc5cccc(O)c5)n4)cc32)c(OC)c1 [Compound R935321]
Second: COC(=O)c1ccc(Cn2cc3ccc(Nc4ncc(F)c(Nc5cccc(O)c5)n4)cc3n2)c(OC)c1 [Compound R935337]
The IC50 of the first is higher: greater than 10 µM for the first, 2.54 µM for the second.

Compared with `O=C(COc1cccc(Nc2ncc(F)c(Nc3ccc4c(c3)OCCO4)n2)c1)N1CCOCC1` [Compound R926484], `COC(=O)COc1cccc(Nc2ncc(F)c(Nc3ccc4c(c3)OCCCO4)n2)c1` [Compound R935185] is lower in IC50: greater than 10 µM for the first, 4.11 µM for the second. The second is the more potent here.

`CS(=O)(=O)Nc1ccc(Nc2ncc(F)c(Nc3ccc(NS(C)(=O)=O)cc3)n2)cc1` [Compound R950083] and `Nc1ccc(Nc2ncc(F)c(Nc3ccc(N)cc3)n2)cc1` [Compound R950122] cannot be ordered by IC50: greater than 10 µM for the first, 13.9 µM for the second.

Going from `CNC(=O)COc1cccc(Nc2nc(Nc3ccc4c(c3)NCCO4)ncc2F)c1` [Compound R909247] to `CNC(=O)COc1cccc(Nc2ncc(F)c(Nc3ccc4c(c3)NCCO4)n2)c1` [Compound R920395], the IC50 falls from 3 µM to 0.726 µM (4.1-fold).

First: N#Cc1cnc(Nc2ccc(OCC(=O)NCC(O)CO)cc2)nc1Nc1cccc(O)c1 (stereo not drawn) [Compound R925846]
Second: CNC(=O)COc1cccc(Nc2ncc(F)c(Nc3ccc(O)cc3)n2)c1 [Compound R950347]
The IC50 of the first is higher: greater than 10 µM for the first, 2.7 µM for the second. The second is the more potent here.

Going from `CCOC(=O)COc1cccc(Nc2ncc(F)c(Nc3cccc(C(C)(C)C)c3)n2)c1` [Compound R940270] to `CCOC(=O)CNc1cccc(Nc2ncc(F)c(Nc3cccc(O)c3)n2)c1` [Compound R950215], the IC50 falls from greater than 10 µM to 5.01 µM.

`CCCCNC(=O)COc1ccc(Nc2ncc(C#N)c(Nc3ccc(OCC(=O)NCCCC)cc3)n2)cc1` [Compound R925860] and `COC(=O)COc1ccc(Nc2ncc(C)c(Nc3ccc(OCC(=O)OC)cc3)n2)cc1` [Compound R926258] cannot be ordered by IC50: 41.9 µM for the first, greater than 10 µM for the second.

First: COC(=O)Cn1ncc2cc(Nc3ncc(F)c(Nc4ccc5c(cnn5CC(=O)OC)c4)n3)ccc21 [Compound R935211]
Second: CNC(=O)Cn1ncc2cc(Nc3ncc(F)c(Nc4ccc5c(cnn5CC(=O)NC)c4)n3)ccc21 [Compound R935217]
The IC50 of the first is lower: 7.06 µM for the first, greater than 10 µM for the second. The first is the more potent here.

First: CCOC(=O)C(C)(C)Oc1cccc(Nc2ncc(F)c(Nc3ccc(C)c(O)c3)n2)c1 [Compound R926908]
Second: CNC(=O)COc1cc(Nc2ncc(F)c(Nc3cccc(O)c3)n2)ccc1C [Compound R926757]
The IC50 of the first is 11-fold higher: 30.6 µM for the first, 2.74 µM for the second.

`Fc1cnc(Nc2ccc3cn[nH]c3c2)nc1Nc1ccc2cn[nH]c2c1` [Compound R935188] and `Cc1cc(Nc2ncc(F)c(Nc3ccc4cn[nH]c4c3)n2)cc(Cl)c1O` [Compound R935264] are within 1.5-fold of each other in IC50: 1.8 µM for the first, 1.41 µM for the second.

Compared with `Fc1cnc(Nc2ccc3c(c2)CCO3)nc1Nc1ccc2c(c1)CCO2` [Compound R909237], `CCOC(=O)CCn1ncc2ccc(Nc3ncc(F)c(Nc4ccc5c(c4)OCCO5)n3)cc21` [Compound R935286] is lower in IC50: greater than 10 µM for the first, 2.5 µM for the second. The second is the more potent here.

`CNC(=O)COc1cccc(Nc2ncc(F)c(Nc3cnc4c(c3)OCC(=O)N4)n2)c1` [Compound R945242] and `CNC(=O)COc1cccc(Nc2ncc(F)c(Nc3ccc4cc(C(=O)OC)[nH]c4c3)n2)c1` [Compound R926904] are within 1.5-fold of each other in IC50: 1.71 µM for the first, 1.36 µM for the second.

`CNC(=O)COc1cccc(Nc2ncc(F)c(Nc3ccc(OC(F)(F)F)cc3)n2)c1` [Compound R926879] and `CNC(=O)COc1cccc(Nc2ncc(F)c(Nc3ccc(OCCC(=O)OC)cc3)n2)c1` [Compound R950346] are within 1.5-fold of each other in IC50: 2.55 µM for the first, 1.95 µM for the second.

Going from `CNC(=O)COc1cccc(Nc2ncc(F)c(Nc3ccc(OC)c(C(=O)NC)c3)n2)c1` [Compound R940306] to `CNC(=O)COc1cccc(Nc2ncc(F)c(Nc3ccc(OC)c(OC)c3)n2)c1` [Compound R926733], the IC50 falls from 11 µM to 3.59 µM (3.1-fold).

Compared with `Cc1ccc(Nc2nc(Cl)ncc2F)cc1CNC(=O)OC(C)(C)C` [Compound R926924], `Cc1cc(Nc2ncc(F)c(Nc3ccc(O)c(C)c3)n2)ccc1O` [Compound R926469] is higher in IC50: 3.23 µM for the first, greater than 10 µM for the second. The first is the more potent here.

`Cc1noc(COc2ccc(Nc3nc(Nc4ccc5c(c4)OCCO5)ncc3F)cc2)n1` [Compound R935145] and `Cc1noc(COc2ccc(Nc3ncc(F)c(Nc4ccc5c(c4)OCCO5)n3)cc2)n1` [Compound R935143] are within 1.5-fold of each other in IC50: 5.34 µM for the first, 3.84 µM for the second.

First: CCOC(=O)c1cnc(Nc2cccc(OCC(=O)NC)c2)nc1Nc1cc(OC)cc(OC)c1 [Compound R926801]
Second: CNC(=O)COc1cccc(Nc2ncc(F)c(Nc3ccc(-n4cnc(Cl)c4Cl)cc3)n2)c1 [Compound R926812]
The IC50 of the first is higher: greater than 10 µM for the first, 6.76 µM for the second. The second is the more potent here.

Going from `CCOC(=O)CSc1ccc(Nc2ncc(F)c(Nc3ccc4c(c3)OCCO4)n2)cn1` [Compound R926727] to `CNC(=O)CCn1ncc2ccc(Nc3ncc(F)c(Nc4cccc(O)c4)n3)cc21` [Compound R935294], the IC50 falls from greater than 10 µM to 8.16 µM. The second is the more potent here.

`OCCOc1cccc(Nc2ncc(F)c(Nc3ccc(CO)c(CO)c3)n2)c1` [Compound R940292] and `Oc1cccc(Nc2nc(Nc3ccc(OCC4=NCCCN4)cc3)ncc2F)c1` [Compound R945169] are within 1.5-fold of each other in IC50: 2.78 µM for the first, 2.38 µM for the second.

First: CCOC(=O)C(C)(C)c1ccc(Nc2nc(Nc3ccc(OCC(=O)OC)cc3)ncc2F)cc1 [Compound R935157]
Second: CNC(=O)C(C)(Oc1cccc(Nc2ncc(F)c(Nc3ccc(OC(C)C)cc3)n2)c1)C(=O)NC [Compound R935196]
The IC50 of the first is higher: greater than 10 µM for the first, 1.1 µM for the second. The second is the more potent here.

Going from `Cn1nnc(COc2ccc(Nc3nc(Nc4ccc(OCc5nnnn5C)cc4)ncc3F)cc2)n1` [Compound R945047] to `O=[N+]([O-])c1ccc(NCCO)c(Nc2ccnc(Nc3cc([N+](=O)[O-])ccc3NCCO)n2)c1` [Compound R950156], the IC50 rises from 3.21 µM to greater than 10 µM.

Same assay, conditions: Homo sapiens

In the case of `O=[N+]([O-])c1cccc(Nc2ncc(F)c(Nc3cccc([N+](=O)[O-])c3)n2)c1` [Compound R950160], the IC50 is reported as greater than 10 µM.

Same assay, conditions: Homo sapiens, Jurkat

`Cc1noc(C)c1Nc1ncc(F)c(Nc2ccc3c(c2)OCCO3)n1` [Compound R926744] and `COCCNc1ncc(F)c(Nc2ccc3c(c2)OCCO3)n1` [Compound R926229] cannot be ordered by IC50: greater than 10 µM for the first, greater than 10 µM for the second.

Going from `Oc1cccc(Nc2ncc(C(F)(F)F)c(Nc3cccc(O)c3)n2)c1` [Compound R925863] to `Nc1cccc(Nc2ncc(F)c(Nc3cccc(N)c3)n2)c1` [Compound R950107], the IC50 rises from 2.96 µM to 5.42 µM (1.8-fold).

`Brc1cnc(Nc2cccc(-c3ccccc3)c2)nc1Nc1cccc(-c2ccccc2)c1` [Compound R925803] and `Fc1cnc(Nc2cccc(-c3ccccc3)c2)nc1Nc1cccc(-c2ccccc2)c1` [Compound R926403] cannot be ordered by IC50: greater than 10 µM for the first, greater than 10 µM for the second.

`Oc1cccc(Nc2nc(NCc3ccc4c(c3)CCO4)ncc2F)c1` [Compound R950213] and `Oc1cccc(Nc2nc(NCc3cccnc3)ncc2F)c1` [Compound R945165] cannot be ordered by IC50: greater than 10 µM for the first, greater than 10 µM for the second.

First: CNC(=O)c1cccc(Nc2ncc(F)c(Nc3ccc4cc[nH]c4c3)n2)c1 [Compound R926933]
Second: CC(=O)Nc1cccc(Nc2ncc(F)c(Nc3cccc(NC(C)=O)c3)n2)c1 [Compound R926682]
The IC50 of the first is 2.1-fold lower: 2.79 µM for the first, 5.95 µM for the second.

First: Cc1ccc(Nc2ncc(F)c(Nc3ccc(C)c(N)c3)n2)cc1N [Compound R950129]
Second: Cc1ccc(Nc2ncc(F)c(Nc3ccc(C)cc3)n2)cc1 [Compound R926225]
The IC50 of the first is lower: 6.88 µM for the first, greater than 10 µM for the second. The first is the more potent here.

`CC(C)Oc1cccc(Nc2ncc(F)c(Nc3cccc(N)c3)n2)c1` [Compound R950164] and `COc1ccc(Nc2nc(Nc3cccc(C(C)(C)C)c3)ncc2F)cc1OC` [Compound R940260] cannot be ordered by IC50: 18.2 µM for the first, greater than 10 µM for the second.

`COc1ccc(CNc2ncc(F)c(Nc3ccc4c(c3)OCCO4)n2)cc1` [Compound R926230] and `Fc1ccc(Nc2ncc(F)c(Nc3ccc4c(c3)OCCO4)n2)cc1` [Compound R926220] cannot be ordered by IC50: greater than 10 µM for the first, greater than 10 µM for the second.

Compared with `CN(C)CCOc1cccc(Nc2ncc(F)c(Nc3ccc4c(c3)OCCO4)n2)c1` [Compound R926771], `CC(=O)Nc1cccc(OCCCNc2ncc(F)c(Nc3ccc4c(c3)OCCO4)n2)c1` [Compound R926787] is higher in IC50: 3.47 µM for the first, greater than 10 µM for the second.

First: Fc1cnc(NCCCN2CCN(Cc3c(F)cccc3Cl)CC2)nc1Nc1ccc2c(c1)OCCO2 [Compound R926717]
Second: Oc1cccc(Nc2ncc(F)c(NCCSCc3c(F)cccc3Cl)n2)c1 [Compound R926724]
The IC50 of the first is lower: 3.75 µM for the first, greater than 10 µM for the second. The first is the more potent here.

Going from `CNC(=O)c1cc(Nc2nc(NC)ncc2F)ccc1OC` [Compound R940304] to `COc1cc(Nc2ncc(F)c(Nc3ccc4c(c3)OCCO4)n2)cc(OC)c1OC` [Compound R926762], the IC50 falls from greater than 10 µM to 0.703 µM.

Going from `CCOC(=O)c1cc2cc(Nc3ncc(F)c(Nc4ccc5c(c4)OCCO5)n3)ccc2[nH]1` [Compound R926476] to `Cc1cc(CNc2nc(Nc3cccc(O)c3)ncc2F)c(C)o1` [Compound R945151], the IC50 rises from 3.9 µM to greater than 10 µM.

Compared with `CC(C)Oc1ccc(Nc2nc(Nc3ccc(OCC(O)CO)cc3)ncc2F)cc1` (stereo not drawn) [Compound R935175], `Cc1c(O)cccc1Nc1ncc(F)c(Nc2cccc(O)c2C)n1` [Compound R945038] is higher in IC50: 1.74 µM for the first, greater than 10 µM for the second.

Molecule `Oc1cccc(Nc2nc(NCc3csc4ccccc34)ncc2F)c1` [Compound R945164] has an IC50 greater than 10 µM.
